The test system of data set [1] is RAW264.7. Briefly: Inhibition of LPS-induced nitric oxide production in mouse RAW264.7 cells pre-incubated at 100 uM for 2 hrs before LPS challenge measured 18 hrs post LPS challenge by Griess method. Format: functional, cell-based.
Data set [2] concerns RAW264.7. Briefly: Inhibition of LPS-induced nitric oxide production in mouse RAW264.7 cells pre-incubated for 2 hrs before LPS challenge measured 18 hrs post LPS challenge by Griess method. Format: functional, cell-based. On the technique in general: The Griess reaction detects nitrite, a stable product of nitric oxide.
The subject of data set [3] is RAW264.7. Briefly: cells. To be noted: Mus musculus, RAW264.7, 24 h.
Description: Cytotoxicity against mouse RAW264.7 cells after 24 hrs by MTT assay
The test system of data set [4] is RAW264.7. Briefly: Cytotoxicity against LPS-stimulated mouse RAW264.7 cells after 24 hrs by MTT assay. Format: cell-based. To be noted: RAW264.7, 24 h. A general note: Formazan colour is commonly taken as a measure of viable cells.
Data set [5] deals with Mus musculus. Briefly: Antiinflammatory activity in ICR mouse assessed as inhibition of carrageenan-induced paw edema at 10 mg/kg, po administered 30 mins before carrageenan challenge measured after 2 hrs. Format: functional.
The target of data set [6] is T1, Nitric oxide synthase, inducible (Mus musculus, UniProt P29477).
T1 sequence (P29477 whole entry): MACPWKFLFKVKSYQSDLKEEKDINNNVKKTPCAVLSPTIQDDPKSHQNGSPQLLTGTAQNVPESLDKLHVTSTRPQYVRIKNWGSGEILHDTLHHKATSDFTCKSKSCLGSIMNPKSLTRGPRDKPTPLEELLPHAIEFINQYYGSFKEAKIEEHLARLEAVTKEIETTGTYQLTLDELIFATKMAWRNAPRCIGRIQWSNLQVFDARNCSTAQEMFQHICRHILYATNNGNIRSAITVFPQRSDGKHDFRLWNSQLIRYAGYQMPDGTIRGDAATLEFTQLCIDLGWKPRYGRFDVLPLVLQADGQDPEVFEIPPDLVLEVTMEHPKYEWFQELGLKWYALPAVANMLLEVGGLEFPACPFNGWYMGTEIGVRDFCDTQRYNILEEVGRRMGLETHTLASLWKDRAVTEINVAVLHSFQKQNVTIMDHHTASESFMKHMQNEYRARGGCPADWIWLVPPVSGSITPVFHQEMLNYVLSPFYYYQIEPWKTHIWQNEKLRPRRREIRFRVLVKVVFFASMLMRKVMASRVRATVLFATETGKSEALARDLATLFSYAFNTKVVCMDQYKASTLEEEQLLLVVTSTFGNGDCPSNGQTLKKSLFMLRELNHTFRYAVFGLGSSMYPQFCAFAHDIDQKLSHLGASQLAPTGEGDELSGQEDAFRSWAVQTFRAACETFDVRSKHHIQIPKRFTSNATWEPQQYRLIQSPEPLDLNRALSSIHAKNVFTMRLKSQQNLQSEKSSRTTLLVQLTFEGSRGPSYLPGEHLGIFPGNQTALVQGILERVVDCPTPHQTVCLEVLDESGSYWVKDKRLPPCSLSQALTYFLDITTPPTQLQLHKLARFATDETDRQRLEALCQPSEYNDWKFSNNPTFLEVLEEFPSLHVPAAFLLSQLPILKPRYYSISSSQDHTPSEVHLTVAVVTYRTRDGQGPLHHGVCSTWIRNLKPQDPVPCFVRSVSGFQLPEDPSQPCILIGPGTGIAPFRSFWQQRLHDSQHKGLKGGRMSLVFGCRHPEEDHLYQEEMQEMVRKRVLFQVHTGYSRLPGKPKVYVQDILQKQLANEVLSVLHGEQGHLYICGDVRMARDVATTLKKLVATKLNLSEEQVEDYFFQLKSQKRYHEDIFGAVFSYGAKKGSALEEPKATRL
Briefly: Inhibition of iNOS-induced nitric oxide production in LPS-stimulated mouse RAW264.7 cells pre-incubated for 2 hrs before LPS challenge by fluorescence assay. Format: cell-based.

Data set [7] in a line: Solubility in EtOH assessed as maximum soluble concentration at 25 degC by nephelometry. Particulars: ethanol. The format is physicochemical.
Data set [8] in a line: Solubility in PBS at pH 7.4 assessed as maximum soluble concentration at 25 degC by nephelometry. The format is physicochemical.
The nature of data set [9]: Cmax in Sprague-Dawley rat at 5 mg/kg. The format is ADME, organism-based. Details: dose 5 mg/kg. Particulars: in vivo.
Data set [10] is described as follows: Cmax in Sprague-Dawley rat at 20 mg/kg, po. Format: ADME, organism-based. Details: dose 20 mg/kg, route oral. To be noted: in vivo.
Data set [11] is described as follows: Tmax in Sprague-Dawley rat at 5 mg/kg. The format is ADME, organism-based. Details: dose 5 mg/kg. To be noted: in vivo.
Data set [12] can be described thus: AUC (0 to t) in Sprague-Dawley rat at 20 mg/kg, po. The format is ADME, organism-based. Details: dose 20 mg/kg, route oral. To be noted: plasma.
The subject of data set [13] is Rattus norvegicus. Briefly: Antiinflammatory activity in CFA-induced Lewis rat arthritis model at 10 mg/kg, po. The format is functional, organism-based. Details: dose 10 mg/kg.
Data set [14] can be described thus: Half life in Sprague-Dawley rat at 5 mg/kg. The format is ADME, organism-based. Details: dose 5 mg/kg. To be noted: in vivo.
Data set [15] can be described thus: AUC (0 to t) in Sprague-Dawley rat at 5 mg/kg. Format: ADME, organism-based. Details: dose 5 mg/kg. To be noted: plasma.
A short description of data set [16]: Tmax in Sprague-Dawley rat at 20 mg/kg, po. Particulars: in vivo. Details: dose 20 mg/kg, route oral. Format: ADME, organism-based.
The nature of data set [17]: Half life in Sprague-Dawley rat at 20 mg/kg, po. Format: ADME, organism-based. Details: dose 20 mg/kg, route oral. To be noted: in vivo.
The nature of data set [18]: Oral bioavailability in Sprague-Dawley rat at 20 mg/kg. Format: ADME, organism-based. Particulars: in vivo.

Data on 15 molecules can be found in ChEMBL document CHEMBL3407361, “Structural exploration, synthesis and pharmacological evaluation of novel 5-benzylidenethiazolidine-2,4-dione derivatives as iNOS inhibitors against inflammatory diseases” (Eur J Med Chem, 2015).

Values after ≈ are worked out from the molar mass of the structure shown. Active and inactive are the calls of the source.

By IC50 is commonly meant the concentration needed to halve the response being measured. A lower IC50 goes with inhibition by little substance. For orientation: inhibition in vivo means how much of the control response was suppressed. Usually kinetic solubility stands for the concentration staying in solution when a stock, usually in DMSO, is diluted into the medium. A word on the Cmax: it is the highest concentration seen after dosing. Usually Tmax stands for the time from dosing to the highest level. Broadly, the AUC(0-t) is the area under the concentration-time curve up to a stated or last time point. For orientation: half-life means the time needed for the level to fall by half in the phase considered. As a reminder, the bioavailability is the share of a dose that reaches the circulation, judged against a reference dose that is usually intravenous. Low values mean poor availability, high ones good availability.

With `COC(=O)CCN1C(=O)S/C(=C\c2ccc(OCC(=O)Nc3cccc(Cl)c3)cc2)C1=O`, the inhibition result in data set [1] was “Active”.

For `O=C(COc1ccc(/C=C2\SC(=O)N(CC(=O)Nc3ccccc3)C2=O)cc1)Nc1cccc(Cl)c1`, the inhibition result in [1] is “Active”.

`COc1ccc2c(c1)c(CC(=O)O)c(C)n2C(=O)c1ccc(Cl)cc1` [INDOMETHACIN]: the IC50 was 40.3 µM in data set [2], above 80 µM in data set [3] and above 80 µM in data set [4]. In addition, the inhibition in vivo at 10 mg/kg in [5] stood at 33.5%.

Consider `O=C(COc1cccc(/C=C2\SC(=O)NC2=O)c1)Nc1cccc(Cl)c1`, for which the inhibition entry in data set [1] is “Active”.

For `O=C(COc1ccc(/C=C2\SC(=O)N(CCN3CCCCC3)C2=O)cc1)Nc1cccc(Cl)c1`, the inhibition result in data set [1] is “Active”.

Regarding `O=C(O)CN1C(=O)/C(=C/c2ccc(OCC(=O)Nc3cccc(Cl)c3)cc2)SC1=S`, the half-maximal inhibitory concentration (IC50) in data set [6] was 47.8 µM; in data set [2], 68.9 µM; in data set [3], above 80 µM; in data set [4] it was above 80 µM. Further, in [1], the inhibition result was “Active”.

Take `O=C(COc1ccc(/C=C2\NC(=O)N(Cc3ccccc3)C2=O)cc1)Nc1cccc(Cl)c1`: the IC50 in [6] is 43.2 µM; in data set [2], 75.4 µM; in data set [3], above 80 µM; in data set [4] it was 46.3 µM. For the same molecule, in [1], the inhibition result was “Active”.

As for `O=C(COc1ccc(/C=C2\SC(=O)NC2=O)cc1)Nc1cccc(Cl)c1`, the IC50 is 21.3 µM in [2], above 80 µM in data set [3] and above 80 µM in data set [4]. Also, the kinetic solubility was 1500 µg/mL (≈ 3.86 mM) in data set [7] and below 500 µg/mL in [8]. Also, the inhibition in vivo at 10 mg/kg in data set [5] worked out at 37.8%.

As for `C#CCN1C(=O)S/C(=C\c2ccc(OCC(=O)Nc3cccc(Cl)c3)cc2)C1=O`, the inhibition result in [1] was “Active”.

As to `O=C(COc1ccc(/C=C2\SC(=O)N(CCN3CCCC3)C2=O)cc1)Nc1cccc(Cl)c1`, the inhibition result in [1] is “Active”.

For `COc1cc(/C=C2\SC(=O)NC2=O)cc(OC)c1OCC(=O)Nc1cccc(Cl)c1`, the Cmax turned out to be 332 ng/mL in [9] and 46.2 ng/mL in [10]. Moreover, the half-inhibitory concentration (IC50) in data set [6] was 25.2 µM; in data set [2], 45.6 µM; in [3] it was above 80 µM; in data set [4], above 80 µM. Also, the Tmax in [11] was determined as 4.2 min; in data set [16] it was 2.27 h. The AUC(0-t) in [12] turned out to be 421 ng·h/mL; in [15], 387 ng·h/mL. The outcome in data set [13] was Active. Moreover, the half-life in [14] was 7.83 h; in data set [17], 5.9 h. The kinetic solubility in data set [7] is 3100 µg/mL (≈ 6.91 mM); in data set [8], below 500 µg/mL. Moreover, the inhibition result in [1] was “Active”. For the same molecule, the bioavailability in data set [18] stood at 27.2%. Further, the inhibition in vivo at 10 mg/kg in data set [5] was determined as 26.1%.

As for `CC(CN(C)C)CN1C(=O)S/C(=C\c2ccc(OCC(=O)Nc3cccc(Cl)c3)cc2)C1=O` (centres undefined), the concentration for half-maximal inhibition (IC50) in data set [6] was 32.1 µM; in data set [2], 53.2 µM; in data set [3], above 80 µM; in data set [4], above 80 µM. Also, in [1], the inhibition result was “Active”.

Regarding `O=C(COc1ccc(C=C2C(=O)NC(=S)NC2=O)cc1)Nc1cccc(Cl)c1`, the inhibition result in data set [1] was “Active”.

For `COCN1C(=O)S/C(=C\c2ccc(OCC(=O)Nc3cccc(Cl)c3)cc2)C1=O`, the half-inhibitory concentration (IC50) in data set [2] is above 80 µM; in [3], 68.4 µM; in data set [4], 72.5 µM.

`N=C1NC(=O)/C(=C/c2ccc(OCC(=O)Nc3cccc(Cl)c3)cc2)S1`: the inhibition result in [1] is “Active”.
